Like-named read-outs stand apart in the source and are kept apart here.
Experiments:
SETD2(1434-1711) = target: T1, SETD2(1434-1711) (Homo sapiens, UniProt Q9BYW2); assay: SETD2 (1434-1711) assay; type: biochemical; conditions: read-out: SETD2 (1434-1711)
T1 construct: SETD2 (1434-1711) Assay; catalogue N/A
T1 sequence (Q9BYW2 1434-1711): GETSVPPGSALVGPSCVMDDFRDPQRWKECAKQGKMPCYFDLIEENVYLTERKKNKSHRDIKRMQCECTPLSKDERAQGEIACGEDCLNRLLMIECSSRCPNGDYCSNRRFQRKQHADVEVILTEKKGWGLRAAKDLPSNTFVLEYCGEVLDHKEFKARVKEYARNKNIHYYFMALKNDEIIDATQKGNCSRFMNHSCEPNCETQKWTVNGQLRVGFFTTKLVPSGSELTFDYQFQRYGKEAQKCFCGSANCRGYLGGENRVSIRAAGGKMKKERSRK

H3K36me3 in A549 cells = assay: In-Cell Western (ICW) assay of SETD2 inhibitors (A549 assay); type: cell-based, human; conditions: A549 cells, read-out: SETD2 A549
Summary of the method: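 H3K36me3 In-Cell Western: cells exposed to compound for 3 days at 4,000 cells/well, 37° C. DRAQ5 (1:1000) marked cell number, with 700/800-channel Licor read-out.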

Row | SMILES | IC50 (SETD2(1434-1711)) [nM] | IC50 (H3K36me3 in A549 cells) [nM] | IC50 (H3K36me3 in A549 cells; Homo sapiens) [nM]
1 | Cc1ccc(F)c2cc(C(=O)NC3CCCC(N4CCC(N(C)C(=O)C5CC5)C4)C3)[nH]c12 (stereo not drawn) [compound 971] | 10 | 100 | –
2 | Cc1ccc(F)c2cc(C(=O)NC3CCCC(N4CCC(N(C)C(=O)C5CC5)C4)C3)[nH]c12 (stereo not drawn) [compound 972] | 4900 | > 2000 | –
3 | Cc1ccc(F)c2cc(C(=O)NC3CCCC(N4CCN(C5CCOC5)C(=O)C4)C3)[nH]c12 (stereo not drawn) [compound 973] | 40 | 200 | –
4 | Cc1ccc(F)c2cc(C(=O)NC3CCCC(N4CCN(C5CCOC5)C(=O)C4)C3)[nH]c12 (stereo not drawn) [compound 974] | 2600 | > 2000 | –
5 | Cc1nnc(C2CCCC(NC(=O)c3cc4c(F)ccc(C)c4[nH]3)C2)o1 (stereo not drawn) [compound 975] | 100 | 400 | –
6 | Cc1nnc(C2CCCC(NC(=O)c3cc4c(F)ccc(C)c4[nH]3)C2)o1 (stereo not drawn) [compound 976] | 6600 | > 2000 | –
7 | Cc1ccc(F)c2cc(C(=O)NC3CCCC(N4CCN(C5CC5)C(=O)C4)C3)[nH]c12 (stereo not drawn) [compound 977] | 20 | 200 | –
8 | Cc1ccc(F)c2cc(C(=O)NC3CCCC(N4CCN(C5CC5)C(=O)C4)C3)[nH]c12 (stereo not drawn) [compound 978] | 2300 | > 2000 | –
9 | CC(=O)N1CCCN(C2CCCC(NC(=O)c3cc4c(F)ccc(C)c4[nH]3)C2)CC1 (stereo not drawn) [compound 979] | 60 | 500 | –
10 | CC(=O)N1CCCN([C@@H]2CCC[C@@H](NC(=O)c3cc4c(F)ccc(C)c4[nH]3)C2)CC1 [compound 980] | 900 | – | > 2000
11 | Cc1ccc(F)c2cc(C(=O)NC3CCCC(N4CCCN(S(C)(=O)=O)CC4)C3)[nH]c12 (stereo not drawn) [compound 981] | 30 | 600 | –
12 | Cc1ccc(F)c2cc(C(=O)NC3CCCC(N4CCCN(S(C)(=O)=O)CC4)C3)[nH]c12 (stereo not drawn) [compound 982] | 1000 | > 2000 | –
13 | Cc1ccc(F)c2cc(C(=O)NC3CCCC(N4CCC(N(C)C(=O)CO)C4)C3)[nH]c12 (stereo not drawn) [compound 983] | 20 | 100 | –
14 | Cc1ccc(F)c2cc(C(=O)NC3CCCC(N4CCC(N(C)C(=O)CO)C4)C3)[nH]c12 (stereo not drawn) [compound 984] | 5300 | > 2000 | –
15 | CC(=O)N1CCN(C2COCC(NC(=O)c3cc4c(F)ccc(C)c4[nH]3)C2)CC1 (stereo not drawn) [compound 985] | 6600 | > 2000 | –
16 | CC(=O)N1CCN(C2COCC(NC(=O)c3cc4c(F)ccc(C)c4[nH]3)C2)CC1 (stereo not drawn) [compound 986] | 60 | 200 | –
17 | CC(=O)N1CCN(C2COCC(NC(=O)c3cc4c(F)ccc(C)c4[nH]3)C2)CC1 (stereo not drawn) [compound 987] | > 10000 | > 2000 | –
18 | CC(=O)N1CCN(C2COCC(NC(=O)c3cc4c(F)ccc(C)c4[nH]3)C2)CC1 (stereo not drawn) [compound 988] | 4100 | > 2000 | –
19 | Cc1ccc(F)c2cc(C(=O)NC3CCCC(N4CCn5c(nnc5C(F)(F)F)C4)C3)[nH]c12 (stereo not drawn) [compound 989] | 100 | 800 | –

Row | SMILES | IC50 (SETD2(1434-1711)) [nM] | IC50 (H3K36me3 in A549 cells) [nM] | IC50 (H3K36me3 in A549 cells; Homo sapiens) [nM]
20 | Cc1ccc(F)c2cc(C(=O)N[C@@H]3CCC[C@@H](N4CCn5c(nnc5C(F)(F)F)C4)C3)[nH]c12 [compound 990] | 3200 | – | > 2000
21 | Cc1ccc(F)c2cc(C(=O)N[C@@H]3CCC[C@H](N4CCn5cncc5C4)C3)[nH]c12 [compound 991] | 60 | – | 300
22 | Cc1ccc(F)c2cc(C(=O)N[C@@H]3CCC[C@@H](N4CCn5cncc5C4)C3)[nH]c12 [compound 992] | 1900 | – | > 2000
23 | Cc1ccc(F)c2cc(C(=O)N[C@@H]3CCC[C@H](N4CCn5c(cnc5C(F)(F)F)C4)C3)[nH]c12 [compound 993] | 40 | – | 200
24 | Cc1ccc(F)c2cc(C(=O)N[C@@H]3CCC[C@@H](N4CCn5c(cnc5C(F)(F)F)C4)C3)[nH]c12 [compound 994] | 1800 | – | > 2000
25 | Cc1ccc(F)c2cc(C(=O)NC3CCCC(N4CCC(N(C)C(=O)CO)C4)C3)[nH]c12 (stereo not drawn) [compound 995] | 8 | 30 | –
26 | Cc1ccc(F)c2cc(C(=O)NC3CCCC(N4CCC(N(C)C(=O)CO)C4)C3)[nH]c12 (stereo not drawn) [compound 996] | 800 | > 2000 | –
27 | Cc1ccc(F)c2cc(C(=O)NC3CCCC(N4CCN(C(=O)OC(C)C)CC4)C3)[nH]c12 (stereo not drawn) [compound 997] | 10 | 80 | –
28 | Cc1ccc(F)c2cc(C(=O)NC3CCCC(N4CCN(C(=O)OC(C)C)CC4)C3)[nH]c12 (stereo not drawn) [compound 998] | 1500 | > 2000 | –
29 | Cc1ccc(F)c2cc(C(=O)N[C@@H]3CCC[C@H](N4CCN(C(=O)OC5CCOCC5)CC4)C3)[nH]c12 [compound 999] | 10 | – | 60
30 | Cc1ccc(F)c2cc(C(=O)NC3CCCC(N4CCN(C(=O)OC5CCOCC5)CC4)C3)[nH]c12 (stereo not drawn) [compound 1000] | 1500 | > 2000 | –
31 | Cc1ccc(F)c2cc(C(=O)N[C@@H]3CCC[C@H](N4CCC(N(C)C)C4=O)C3)[nH]c12 (stereo partly drawn) [compound 1002] | 1200 | – | 1800
32 | Cc1ccc(F)c2cc(C(=O)N[C@@H]3CCC[C@H](c4ccncn4)C3)[nH]c12 [compound 1003] | 30 | – | 200
33 | CC(=O)N1CCN([C@@H]2C[C@H](NC(=O)c3cc4c(F)ccc(C)c4[nH]3)CN(C)C2)CC1 [compound 1006] | 1000 | – | 1800
34 | CC(=O)N1CCC([C@H]2CCC[C@@H](NC(=O)c3cc4c(F)ccc(C)c4[nH]3)C2)CC1 [compound 1007] | 6 | – | 20
35 | Cc1nc([C@H]2CCC[C@@H](NC(=O)c3cc4c(F)ccc(C)c4[nH]3)C2)no1 [compound 1011] | 300 | – | 900
36 | Cc1ccc(F)c2cc(C(=O)N[C@@H]3CCC[C@H](c4nccc(=O)[nH]4)C3)[nH]c12 [compound 1013] | 706 | – | > 2000
37 | Cc1ccc(F)c2cc(C(=O)N[C@@H]3CCC[C@H](c4noc(CN(C)C)n4)C3)[nH]c12 [compound 1014] | 200 | – | 700
38 | CC(=O)N1CCN(C2CCCC(NC(=O)c3cc4c(F)ccc(C)c4[nH]3)C2)CC1C(F)(F)F (stereo not drawn) [compound 1018] | 30 | 70 | –

Row | SMILES | IC50 (SETD2(1434-1711)) [nM] | IC50 (H3K36me3 in A549 cells) [nM] | IC50 (H3K36me3 in A549 cells; Homo sapiens) [nM]
39 | CC(=O)N1CCN(C2CCCC(NC(=O)c3cc4c(F)ccc(C)c4[nH]3)C2)C(C)C1 (stereo not drawn) [compound 1021] | 50 | 90 | –
40 | CC(=O)N1CCN(C2CCCC(NC(=O)c3cc4c(F)ccc(C)c4[nH]3)C2)CC1CO (stereo not drawn) [compound 1022] | 2600 | > 2000 | –
41 | CC(=O)N1CCN([C@H]2CCC[C@@H](NC(=O)c3cc4c(F)ccc(C)c4[nH]3)C2)C2(CC2)C1 [compound 1024] | 50 | – | 60
42 | CC(=O)N1CCN([C@H]2CCC[C@@H](NC(=O)c3cc4c(F)ccc(C)c4[nH]3)C2)CC12CC2 [compound 1025] | 20 | – | 30
43 | Cc1ccc(F)c2cc(C(=O)N[C@@H]3CCC[C@H](N4CCn5nc(C(F)(F)F)nc5C4)C3)[nH]c12 [compound 1031] | 200 | – | 1400
44 | CC(=O)N1CCN(C[C@H]2CCC[C@@H](NC(=O)c3cc4c(F)ccc(C)c4[nH]3)C2)CC1 [compound 1032] | 200 | – | 400
45 | Cc1ccc(F)c2cc(C(=O)N[C@@H]3CCC[C@H](N4CCN(C(=O)NC5CCOCC5)CC4)C3)[nH]c12 [compound 1037] | 30 | – | 300
46 | COCC(=O)N(C)[C@@H]1CCN([C@H]2CCC[C@@H](NC(=O)c3cc4c(F)ccc(C)c4[nH]3)C2)C1 [compound 1042] | 20 | – | 200
47 | COCC(=O)N(C)[C@H]1CCN([C@H]2CCC[C@@H](NC(=O)c3cc4c(F)ccc(C)c4[nH]3)C2)C1 [compound 1043] | 8 | – | 40
48 | Cc1ccc(F)c2cc(C(=O)N[C@@H]3CCC[C@H](N4CCN5C(=O)CCC[C@@H]5C4)C3)[nH]c12 [compound 1044] | 20 | – | 20
49 | Cc1ccc(F)c2cc(C(=O)N[C@@H]3CCC[C@H](N4CCN5C(=O)COCC5C4)C3)[nH]c12 (stereo partly drawn) [compound 1045] | 8 | – | 30
50 | Cc1ccc(F)c2cc(C(=O)NC3CCCC(N4CCN5C(=O)CN(C)C(=O)C5C4)C3)[nH]c12 (stereo not drawn) [compound 1046] | 2800 | > 2000 | –
51 | Cc1ccc(F)c2cc(C(=O)N[C@@H]3CCC[C@H](N4CCn5c(cccc5=O)C4)C3)[nH]c12 [compound 1048] | 20 | – | 70
52 | Cc1ccc(F)c2cc(C(=O)N[C@@H]3CCC[C@H](N4CCn5c(nccc5=O)C4)C3)[nH]c12 [compound 1049] | 50 | – | 100
53 | Cc1ccc(F)c2cc(C(=O)NC3CCCC(N4CCN5C(=O)NCC5C4)C3)[nH]c12 (stereo not drawn) [compound 1050] | 1000 | > 2000 | –
54 | Cc1ccc(F)c2cc(C(=O)NC3CCCC(N4CCN5C(=O)N(C)CC5C4)C3)[nH]c12 (stereo not drawn) [compound 1051] | 10 | 30 | –
55 | Cc1ccc(F)c2cc(C(=O)NC3CCCC(N4CCC(N(C)C(=O)C(C)(C)O)C4)C3)[nH]c12 (stereo not drawn) [compound 1052] | 20 | 50 | –
56 | CCN(C(=O)CO)C1CCN(C2CCCC(NC(=O)c3cc4c(F)ccc(C)c4[nH]3)C2)C1 (stereo not drawn) [compound 1053] | 30 | 400 | –
57 | CCN([C@@H]1CCN([C@H]2CCC[C@@H](NC(=O)c3cc4c(F)ccc(C)c4[nH]3)C2)C1)S(C)(=O)=O [compound 1054] | 10 | – | 90

Source: patent US12116358B2, “Substituted indoles and methods of use thereof” (EPIZYME, INC., priority 2018, dated 2024)
